# In ChEMBL document CHEMBL1201862, “PubChem BioAssay data set” (2004):
# Calls of active or inactive are those of the source.
# Test system: not listed separately
# Experiment: P. falciparum Dd2 growth inhibitors, dose response, SYBR Green, cherry-picked samples (AID 1159567)
# Assay type: functional, cell-based
row,SMILES,AC50
1,C/C=C/c1ccc([C@H]2[C@@H](CO)N(CC3CCCC3)C23CN(C(=O)CC2CC2)C3)cc1,4.55 µM (active)
2,COc1ccc2c3c([nH]c2c1)[C@H](CO)N(Cc1ccc(F)cc1)CC31CCN(Cc2ccccn2)CC1,2.95 µM (active)
3,CCC(=O)N1CC2(C1)CN(Cc1cc(F)ccc1F)[C@@H](CO)c1[nH]c3cc(OC)ccc3c12,7.9 µM (active)
4,N#Cc1ccc(-c2ccc3c(c2)[C@H]2[C@H](CCN2C(=O)C2CCCC2)[C@H](CO)N3)cc1,4.55 µM (active)
5,C/C=C/c1ccc2c(c1)[C@H]1[C@H](CCN1C(=O)C1CCCC1)[C@@H](CO)N2,4.97 µM (active)

# Target: Large T antigen (Simian virus 40, UniProt P03070);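 further: Confirmatory-stage PubChem screen for compounds that inhibit SV40 T antigen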
# Sequence (P03070 whole entry): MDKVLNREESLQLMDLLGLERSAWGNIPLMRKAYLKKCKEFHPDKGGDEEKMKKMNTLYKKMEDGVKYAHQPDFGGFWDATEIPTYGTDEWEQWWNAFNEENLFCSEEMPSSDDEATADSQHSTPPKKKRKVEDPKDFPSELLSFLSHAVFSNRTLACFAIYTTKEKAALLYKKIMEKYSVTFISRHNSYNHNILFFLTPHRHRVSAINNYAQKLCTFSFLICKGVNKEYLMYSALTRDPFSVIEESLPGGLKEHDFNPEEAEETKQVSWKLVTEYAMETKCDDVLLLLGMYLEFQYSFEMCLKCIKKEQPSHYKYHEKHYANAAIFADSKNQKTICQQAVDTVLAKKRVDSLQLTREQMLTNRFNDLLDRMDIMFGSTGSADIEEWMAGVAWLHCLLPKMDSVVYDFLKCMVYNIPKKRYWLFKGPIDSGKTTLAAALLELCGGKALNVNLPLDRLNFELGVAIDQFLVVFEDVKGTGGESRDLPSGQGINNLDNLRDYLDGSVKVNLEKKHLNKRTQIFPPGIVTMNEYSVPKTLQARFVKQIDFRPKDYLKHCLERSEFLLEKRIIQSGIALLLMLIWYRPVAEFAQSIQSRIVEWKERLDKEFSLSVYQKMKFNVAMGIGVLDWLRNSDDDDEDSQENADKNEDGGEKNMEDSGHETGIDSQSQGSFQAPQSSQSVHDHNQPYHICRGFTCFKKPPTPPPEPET
# Experiment: not given
# Assay type: functional, Betapolyomavirus macacae
row,SMILES,IC50
1,COc1cc(/C=N/NC(=O)CSc2ccccn2)ccc1O,9.69 µM (active)
2,CCOC(=O)CNc1c(-c2ccc(O)cc2)nc2ccc(Cl)cn12,15.9 µM (active)
3,CN(C)c1ccc(Nc2cc(Cl)ncn2)cc1,7.46 µM (active)

# Test system: not listed separately
# Experiment: viability of HCT116 lacking mutant beta-catenin – cell-based, human colon tumor, dose response (AID 1045);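 further: HCT116 colon tumor cells with beta catenin knocked out; cells exposed to compound for 60 hours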
# Assay type: functional
row,SMILES,EC50
1,CCOc1cc(/C=N/O)ccc1OS(=O)(=O)c1ccc(C)cc1,312 µM (active)

# Test system: not listed separately
# Experiment: cells
# Assay type: functional
row,SMILES,IC50
1,CNc1nnc(Sc2ncccc2[N+](=O)[O-])s1,7.5 µM (active)
2,COc1ccc2c(c1)sc(=N)n2C,30 µM (active)

# Test system: not listed separately
# Experiment: Trypanosoma cruzi growth suppression in host cells – NIH3T3 host cells, beta-gal luminescence, confirmation (AID 2044);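 further: intracellular parasites grown in NIH/3T3 mouse fibroblasts as host cells; luminescent beta-galactosidase reporter signal from transgenic T. cruzi replicating inside host cells; inhibitors lower the luminescence signal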
# Assay type: functional, cell-based
row,SMILES,EC50
1,COc1ccc2c(c1)sc(=N)n2C,0.122 µM (active)

# Test system: not listed separately
# Experiment: NIH3T3 cell viability loss – ATP luminescence, mouse fibroblasts, counter-screen, dose response (AID 2010);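 further: cells exposed to compound for about 90 hours before reading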
# Assay type: functional, cell-based
row,SMILES,EC50
1,COc1ccc2c(c1)sc(=N)n2C,> 60 µM (inconclusive)

# Target: T1, Heat shock factor protein 1 (Mus musculus, UniProt P38532)
# T1 sequence (P38532 whole entry): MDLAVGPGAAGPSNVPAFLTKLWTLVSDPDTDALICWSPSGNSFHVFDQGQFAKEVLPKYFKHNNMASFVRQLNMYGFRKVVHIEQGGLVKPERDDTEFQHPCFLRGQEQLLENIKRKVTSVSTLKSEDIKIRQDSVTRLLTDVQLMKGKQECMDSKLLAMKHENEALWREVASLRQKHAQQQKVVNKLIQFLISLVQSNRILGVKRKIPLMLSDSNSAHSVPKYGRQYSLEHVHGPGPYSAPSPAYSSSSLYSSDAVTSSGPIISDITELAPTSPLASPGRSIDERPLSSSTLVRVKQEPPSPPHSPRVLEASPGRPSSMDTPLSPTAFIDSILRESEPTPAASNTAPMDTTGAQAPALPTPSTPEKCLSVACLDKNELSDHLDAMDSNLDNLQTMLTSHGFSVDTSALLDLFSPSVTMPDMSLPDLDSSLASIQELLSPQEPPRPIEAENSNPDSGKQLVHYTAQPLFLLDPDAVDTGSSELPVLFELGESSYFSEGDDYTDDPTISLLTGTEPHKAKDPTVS
# Experiment: enhancement of HSF1-driven luciferase signal – cell-based, NIH3T3, luminescence, dose retest, confirmation (AID 435004);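 further: stress induced by proteasome inhibitor MG132 added 30 min after compound; luciferase reporter driven by HSF1 response element in NIH3T3 cells; actives raise luminescence as potentiators of the MG132 stress response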
# Assay type: functional
row,SMILES,EC50
1,CCCN1CCN(C(=O)c2ccc(Sc3ccc(C)cc3)c(NC(C)=O)c2)CC1,> 260 µM (inactive)
2,O=C(CN1c2ccccc2Sc2ccccc21)N/N=C/c1ccc(Cl)cc1,> 260 µM (inactive)
3,Cc1ccc(NC(=O)CCS(=O)(=O)c2ccc3c(c2)NC(=O)C(C)S3)nc1 (stereo not given),> 260 µM (inactive)
4,O=C1C2CCCCN2C(=O)N1CCCN1CCN(c2ccc(F)cc2)CC1 (stereo not given),> 260 µM (inactive)
5,O=C(CCCN1C(=O)c2cccc3cccc(c23)C1=O)Nc1ccon1,> 260 µM (inactive)
6,O=C1c2cccc3cccc(c23)C(=O)N1OS(=O)(=O)c1ccccc1,> 260 µM (inactive)
7,CCCc1cc(O)nc(SCC(=O)Nc2ccc(C)cc2)n1,> 260 µM (inactive)
